The source of these data is US10179789B2, “Methylenedioxybenzo [I] phenanthridine derivatives used to treat cancer” (Rutgers, The State University of New Jersey, priority 2009, dated 2019).

One data set has as its target T1, human topoisomerase I (Homo sapiens, UniProt P11387).
T1 construct: unnamed fusion partner (recombinant fusion protein, T7 expression system); made in house; host or cells: Escherichia coli
T1 sequence (P11387 1-765): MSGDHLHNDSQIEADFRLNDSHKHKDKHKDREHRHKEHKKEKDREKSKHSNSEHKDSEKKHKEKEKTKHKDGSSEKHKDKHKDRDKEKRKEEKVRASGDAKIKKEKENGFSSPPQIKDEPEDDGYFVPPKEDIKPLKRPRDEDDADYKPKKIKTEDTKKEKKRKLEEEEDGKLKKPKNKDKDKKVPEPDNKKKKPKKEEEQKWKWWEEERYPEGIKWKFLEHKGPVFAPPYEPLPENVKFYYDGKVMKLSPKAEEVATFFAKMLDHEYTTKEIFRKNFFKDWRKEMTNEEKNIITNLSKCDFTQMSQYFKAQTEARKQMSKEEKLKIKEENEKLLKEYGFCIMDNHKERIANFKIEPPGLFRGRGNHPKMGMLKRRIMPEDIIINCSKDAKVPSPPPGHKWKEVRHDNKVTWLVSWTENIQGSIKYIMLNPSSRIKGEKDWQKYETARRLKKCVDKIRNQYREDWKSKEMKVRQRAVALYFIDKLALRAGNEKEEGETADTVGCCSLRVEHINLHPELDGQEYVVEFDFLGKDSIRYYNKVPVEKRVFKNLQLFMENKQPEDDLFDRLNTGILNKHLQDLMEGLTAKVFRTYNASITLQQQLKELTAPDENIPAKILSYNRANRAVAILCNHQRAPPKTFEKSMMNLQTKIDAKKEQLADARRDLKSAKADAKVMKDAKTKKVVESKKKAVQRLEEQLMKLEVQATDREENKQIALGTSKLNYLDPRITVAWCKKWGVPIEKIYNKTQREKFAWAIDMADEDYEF
The data set is described as follows: Test A. Topoisomerase I-mediated DNA cleavage assay. It counts as biochemical. Particulars: Relative Effective Concentration; relative to camptothecin arbitrarily assumed as 0.2; same 10% cleavage on plasmid DNA. From the text: Test A. Topoisomerase I—Mediated DNA Cleavage Assay Human topoisomerase I was expressed in Escherichia coli and isolated as a recombinant fusion protein using a T7 expression system as described previously (31). Plasmid YepG was also purified by the alkali lysis method followed by phenol deproteination and CsCl/ethidium isopycnic centrifugation method as described (32). The 3′ end labeling of the plasmid was accomplished by digestion with a restriction enzyme followed by end filling with Klenow polymerase as previously described (33). The cleavage assays were performed as previously reported (34,35). The drug and the DNA in presence of topoisomerase I was incubated for 30 min at room temperature. The reactions were terminated by the addition of 5 μL of 5% SDS and 1 mg/mL […] with an additional 1 h of incubation at 37° C. […] After development of the gels, typically 24-h exposure was used to obtain autoradiograms outlining the extent of DNA fragmentation. Topoisomerase I-mediated DNA cleavage values are reported as Relative Effective Concentration (REC). […] Results for the assay for representative compounds of the invention of formula I along with comparison compounds are shown in Table 1.

The subject of data set [1] is RPMI 8402 human lymphoblast cells. The data set is described as follows: Test B. MTT cytotoxicity assay, RPMI8402. It counts as cell-based. The method, then: (§1) Test B. Cytotoxic Assays (Cancer Cell Lines and Efflux Transporter Cell Lines)
(§2) The cytotoxicity was determined using the MTT-microtiter plate tetrazolinium cytotoxicity assay (MTA). The human lymphoblast RPMI 8402 and its camptothecin-resistant variant cell line, CPT-K5 was provided by Dr. Toshiwo Andoh (Aichi Cancer Center Research Institute, Nagoya, Japan). (36) The P388 mouse leukemia cell line and its CPT-resistant TOP1-deficient variant P388/CPT45 (37) were obtained from Michael R. Mattern and Randal K. Johnson (GlaxoSmithKline, King of Prussia, Pa.). The KB3-1 cell line and its multidrug-resistant variant KBV-1 (38) were obtained from K. V. Chin (The Cancer Institute of New Jersey, New Brunswick, N.J.). The KBH5.0 cell line as noted previously (21) was derived from KB3-1 by stepwise selection against Hoechst 33342. The cytotoxicity assay was performed using 96-well microtiter plates. Cells were grown in suspension at 37° C. in 5% CO2 and maintained by regular passage in RPMI medium supplemented with 10% heat inactivated fetal bovine serum, L-glutamine (2 mM), penicillin (100 U/mL), and Streptomycin (0.1 mg/mL). For determination of IC50, cells were exposed continuously for FOUR days to varying concentrations of drug, and MTT assays were performed at the end of the fourth day. […] All assays were performed at least twice in six replicate wells.

Data set [2] deals with CPT-K5 (camptothecin-resistant variant of RPMI 8402). The data set is described as follows: Test B. MTT cytotoxicity assay, CPT-K5. It counts as cell-based, human. The method, then:
as §1, §2

The test system of data set [3] is P388 mouse leukemia cell line. The data set is described as follows: Test B. MTT cytotoxicity assay, P388. It counts as cell-based. The method, then:
as §1, §2

The test system of data set [4] is P388/CPT45 (CPT-resistant TOP1-deficient variant of P388). The data set is described as follows: Test B. MTT cytotoxicity assay, P388/CPT45. It counts as cell-based, mouse. Here is the method:
as §1, §2

In another data set the test system is KB3-1 cell line. The data set is described as follows: Cytotoxicity on KB3-1 (parent cell line). It counts as cell-based. The method, then:
as §2
(§3) The cytotoxicity of the representative compounds of the invention were also tested on cell line KB3-1 (parent cell line), KBV-1 (a variant that overexpresses efflux transporter MDR1) and KBH5.0 (a variant that overexpresses BCRP). Differences in the relative cytotoxicity between the parent and variant cell lines may be indicative of a compound that is a substrate for an efflux transporter. […] Accordingly, compounds of the invention of formula I may be useful to treat tumors that are resistant to other anticancer agents, especially anticancer agents that are susceptible to efflux by BCRP (e.g. anthracyclines, mitoxantrone, topotecan, irinotecan, bisanthrone, doxorubicin, daunorubicin, and epirubin.

Data set [5] concerns KBV-1 (variant that overexpresses efflux transporter MDR1). The data set is described as follows: Cytotoxicity on KBV-1 (overexpresses MDR1). It counts as cell-based. Here is the method:
as §2, §3

Data set [6] has as its system KBH5.0 (variant that overexpresses BCRP). The data set is described as follows: Cytotoxicity on KBH5.0 (overexpresses BCRP). It counts as cell-based. The settings on record: for substrate for BCRP: not told. Here is the method: as §2, §3
A short description of data set [7]: Cytotoxicity on KB3-1 (parent cell line). It counts as cell-based. Particulars: human. Here is the method: as §2, §3
Another data set relates to MDR1. The data set is described as follows: Cytotoxicity on KBV-1 (overexpresses MDR1). It counts as cell-based. The settings on record: human. Here is the method:
as §2, §3

Another data set has as its system BCRP. The data set is described as follows: Cytotoxicity on KBH5.0 (overexpresses BCRP). It counts as cell-based. Particulars: human. Here is the method: as §2, §3

Like-named read-outs stand apart in the source and are kept apart here.

As for `COc1cc2c(C(=O)NCC(C)(C)N(C)C)cc3c4cc5c(cc4ncc3c2cc1OC)OCO5` [Compound 31, 2,3-Dimethoxy-N-(2-(dimethylamino)-2-methylpropyl)-8,9-methylene-dioxybenzo[i] phenanthridine-12-carboxamide], the “TOP1 Mediated DNA Cleavage (REC Value)” value on human topoisomerase I is 0.1. The IC50 is 2 nM in data set [1]; 790 nM in data set [2]; 2 nM in data set [3]; 250 nM in data set [4] (P388/CPT45, four days continuous exposure, MTT, read-out: Cytotoxicity IC50 P388/CPT45); 1 nM in the data set on KB3-1 cell line; 30 nM in data set [5]. The compound further registered an IC50 in [6] of 4 nM. The “substrate for BCRP” value in [6] was “not substrates for BCRP”.
`COc1cc2c(C(=O)NCC(C)(C)N(Cc3ccccc3)Cc3ccccc3)cc3c4cc5c(cc4ncc3c2cc1OC)OCO5` [Compound 32, N-(2-(Dibenzylamino)-2-methylpropyl)-2,3-dimethoxy-8,9-methylene-dioxybenzo[i]phenanthridine-12-carboxamide]: the “TOP1 Mediated DNA Cleavage (REC Value)” value on human topoisomerase I was found to be 1.5. Also, the IC50 in data set [1] stood at 60 nM; in data set [2] it was 5000 nM; in data set [3], 30 nM; in [4], 1300 nM; with KB3-1 cell line, 20 nM; in data set [5], 2900 nM. In data set [6], this compound gave an IC50 of 600 nM.
For the compound `COc1cc2cc(C(=O)NCC(C)(C)N(C)C)c3c4cc5c(cc4ncc3c2cc1OC)OCO5` [Compound 34, 2,3-Dimethoxy-8,9-methylenedioxybenzo[i]phenanthridine-11-carboxylic acid 2-(dimethylamino)-2-methylpropylamide], the melting point is 222 to 225 °C. The “TOP1 Mediated DNA Cleavage (REC Value)” value on human topoisomerase I was found to be 0.09. Further, the IC50 in [1] (Homo sapiens, RPMI 8402, 96 h, read-out: Cytotoxicity IC50 RPMI8402) is 3 nM. In [2] (Homo sapiens, CPT-K5, 96 h, read-out: Cytotoxicity IC50 CPT-K5), the IC50 worked out at 500 nM. Further, the IC50 in [3] (Mus musculus, P388, 96 h, read-out: Cytotoxicity IC50 P388) was 2 nM. For the same compound, the IC50 in [4] (Mus musculus, P388CPT45, 96 h, read-out: Cytotoxicity IC50 P388/CPT45) amounted to 230 nM. Moreover, in data set [7], the IC50 at 4 days was 3 nM. Further, the IC50 at 4 days with MDR1 worked out at 65 nM. The same compound had an IC50 at 4 days in the data set with BCRP of 10 nM. Moreover, the “substrate for BCRP” value in [6] is “not substrates for BCRP”.
